Test results published in patent US20260072027A1, “Peptides And Method” (Queen Mary University of London, priority 2022, published 2026).

Test system: CD8+ T-cells (PBMCs)
Experiment: In vitro peptide stimulation and T-cell proliferation assay, CD8+
Type: cell-based, human
Settings: for CD8+ mean SI (stimulation index): Study cohort 2
In short: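 CellTrace Violet-labelled fresh PBMCs from type 1 diabetic and healthy donors cultured 7 days in 5% autologous plasma with or without 20 μg/ml insulin peptides. Proliferation measured by flow cytometry as dye dilution within the CD4+ or CD8+ subset. Stimulation index = % proliferation stimulated/% unstimulated.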

“LVEALYLVCGERGFFYTPKT [insulin B:11-30 native peptide]” was tested, and the “CD8+ T-cell response, subjects with SI > 1 (%)” value (Controls (N = 11)) was “(63.6%)”, the “CD8+ T-cell response, subjects with SI > 3 (%)” value (Controls (N = 11)) was “(45.5%)” and the “CD8+ T-cell response, subjects with SI > 5 (%)” value (Controls (N = 11)) was “(27.3%)”. For the same sequence, the “CD8+ T-cell response, subjects with SI > 10 (%)” value (Controls (N = 11)) was “(18.2%)”, the “CD8+ T-cell response, subjects with SI > 1 (%)” value (Controls (N = 11), listed as Nt-INSP-4) was 63.6% and the “CD8+ T-cell response, subjects with SI > 1 (%)” value (Type 1 diabetes (N = 18)) was “(72.2%)”. For the same sequence, the “CD8+ T-cell response, subjects with SI > 3 (%)” value (Type 1 diabetes (N = 18)) was “(55.6%)”, the “CD8+ T-cell response, subjects with SI > 5 (%)” value (Type 1 diabetes (N = 18)) was “(38.9%)” and the “CD8+ T-cell response, subjects with SI > 10 (%)” value (Type 1 diabetes (N = 18)) was “(33.3%)”. The “CD8+ T-cell response, subjects with SI > 1 (%)” value (Type 1 diabetes (N = 18), listed as Nt-INSP-4) was 72.2%, the “CD8+ mean SI (stimulation index)” value (controls) was 5.948±3.125 and the “CD8+ mean SI (stimulation index)” value (type 1 diabetes) was 405.8±325.5.
